In data set [1] the test system is MDA-MB-231 cells. As to the kind of experiment: Migration assay (RTCA CIM plate). It is filed as cell-based, human. Conditions: 20 μM, 48 hours. How it is done: FIG. 37. LOX inhibitors, 6232, 6403 and 6415, reduced the migration capacity of the TNBC cell lines. RTCA-CIM plate used to measure the real-time migration of MDA-MB-231 cells upon treatment with 20 μM of 6232, 6403 and 6415 for 48 hours. (* p<0.05; ** p<0.01)
RTCA CIM Plate was used to assess the migration capacity of the cells upon LOX inhibitor treatment according to manufacturer's instructions. Briefly, 160 μl of 10% FBS containing media was added into each bottom chamber/50 μl of FBS free media into upper chamber and incubated 1 hour at 37° C. After the background measurement, 5×10^4 cells were seeded in FBS-free media into upper chamber in the presence of LOX inhibitors or vehicle. After the 30 min incubation at RT, real time cell migration was recorded for 48 hours.

For data set [2], the system named is cellular LOX activity, Mia-Paca-2. As to the kind of experiment: Cell-based LOX activity in pancreatic cancer cell line. More on the design: species or system human. As to the method:
(§1) FIG. 39. Inhibition of cellular LOX activity in pancreatic and kidney cancer cell lines. Inhibition of cellular LOX activity upon the treatment with BAPN, 6232, 6403 and 6415 in kidney cell line Caki-1 (A) and pancreatic cancer cell lines Mia-Paca-2 (B) and PANC1 (C).
(§2) For cell-based lysyl oxidase activity, fluorometric Lysly Oxidase Activity Assay Kit (Abcam, USA) was used according to manufacturer's instructions. Briefly, after the treatment, 50 μl of supernatant from each well was incubated with reagent mix and fluorescence measured in multimode-reader at Ex/Em=540/590 nm wavelength.

For data set [3], the system named is cellular LOX activity, PANC1. The data set is described as above. The arrangement: species or system human. As to the method: as §1, §2
In data set [4] the test system is HFF cells. As to the kind of experiment: Fibrosis assay (TGF-beta induced, alpha-SMA and fibronectin staining). Format: cell-based, human. Conditions: 10 uM compound, 1 hour pretreatment, TGF-β 48 hours. How it is done:
FIG. 40. […] 24 hours serum-starved HFF cells were pretreated with inhibitors 1 hours. Then, fibrosis was induced by […] of TGF-β for 48 hours in HFF cells. ALK5 (10 μM) inhibitor is used as a negative control. LOX inhibitors 6232, 6403 and 6415 were used at 10 uM concentration. HFF cells were stained with alpha-SMA and fibronectin primary antibodies. Nucleus of the cells was labeled with DAPI.
Human foreskin fibroblasts (HFF), see Li, M. et al. Icaritin inhibits skin fibrosis through regulating AMPK and Wnt/β-catenin signaling. Cell Biochemistry and Biophysics 79, 231-238 (2021), cells were seeded into μ-Slide 8-well glass bottom chambers (Ibidi, Germany). Next day, media of the cells were replaced with 0.5% FBS contain media and incubated with 24 hours. Then, cells were pretreated either with ALK5 inhibitor (Sellekchem, USA) or LOX inhibitors for 1 hour and cells were incubated with 10 ng/ml of TGF-beta (R&D Biosystems, USA) for 48 hours. Staining of the markers followed the same procedure described in the Immunofluorescence section above.

The target of data set [5] is T1, recombinant LOX (Homo sapiens, UniProt P28300).
T1 construct: purchased Novus, USA
T1 sequence (P28300 169-417): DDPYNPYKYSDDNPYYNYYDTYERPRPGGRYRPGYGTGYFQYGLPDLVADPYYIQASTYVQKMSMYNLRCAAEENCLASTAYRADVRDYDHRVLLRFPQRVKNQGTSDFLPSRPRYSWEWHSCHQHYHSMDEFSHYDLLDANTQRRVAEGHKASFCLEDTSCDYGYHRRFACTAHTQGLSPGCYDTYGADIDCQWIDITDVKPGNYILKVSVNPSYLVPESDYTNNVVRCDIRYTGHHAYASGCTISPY
As to the kind of experiment: Lysyl oxidase activity assay with recombinant LOX protein. Format: biochemical. Conditions: for inhibition of recombinant LOX: 10 μM compound; for selectivity LOX versus LOXL2 / LOX family: recombinant proteins. As to the method:
For in vitro lysyl oxidase activity (for recombinant proteins), Lysyl Oxidase Activity kit (Biovision, USA) was used according to manufacturer's instructions. Briefly, 1 μg of LOX (Novus, USA), 0.2 μg of LOXL1 (Abcam, USA) and 0.1 μg of LOXL2 (Abcam, USA) were incubated with the reagent mix in the presence of inhibitors or vehicle. Lysyl oxidase activity of the wells was measured in multimode reader (every 30 sec, total 2.5 hours) in […] mode.

For data set [6], the system named is cellular lysyl oxidase activity, ACHN. As to the kind of experiment: Cell-based LOX activity in kidney cancer cell line. More on the design: species or system human. Conditions: uM range. As to the method: FIG. 38. Dose dependent inhibition of cellular LOX activity and growth inhibition in 3D upon treatment with 6232 and its analogs, 6403 and 6415.in ACHN cancer cell line. Inhibition of cell-based LOX activity in ACHN (A) and growth inhibition in collagen:matrigel (1:1) culture (B) cancer cell lines upon treatment with LOX inhibitors 6232, 6403 and 6415 (uM range). BAPN is used as a positive control (mM range) in 3D cell viability assay. Growth inhibition was measured by using 3D Cell Titer Glo kit.
as §2

The test system of data set [7] is MDA-MB-231 cells. As to the kind of experiment: Doxorubicin chemosensitization in 3D collagen I culture. It is filed as cell-based, human. Conditions: collagen I-embedded cells, combination with doxorubicin. As to the method: (§3) Collagen solution was prepared at a concentration of 0.5-1 mg/ml from the rat tail collagen I (Corning, USA) with a neutralization step including the addition of 1N NaOH solution. Cells were trypsinazed and resuspended in collagen:matrigel mix (1:1). 8×10^3 cells were seeded into 96-well or μ-Slide 8-well glass bottom chambers. After 1 hour of incubation at room temperature, media was added on top of the solidified collagen:matrigel mix. Drug treatments were done 12 hours after cell seeding.
(§4) Cells were embedded in type I collagen:matrigel mix as described above. Cells were grown in the presence of doxorubicin or LOX inhibitors alone or combination of LOX inhibitors with doxorubicin for 48 hours. After the treatment, cell viability was measured by using 3D Cell Titer Glo (Promega, USA) kit.

Data set [8] relates to HCC1143. Described as above. Format: cell-based, human. To be noted: collagen I-embedded cells, combination with doxorubicin. How it is done:
as §3, §4

For data set [9], the system named is MCF12A. As to the kind of experiment: Viability assay in normal cells. It is filed as cell-based, human. Conditions: normal breast cell line. From the text:
(§5) FIG. 32. 6232 derivatives, 6403 and 6415, show no cytotoxicity in normal cells. Viability assay in normal breast cell line, MCF12A, human foreskin fibroblast cell line, HFF and human endothelial cell line, HUVEC treated with 6403 or 6415.

In data set [10] the test system is HFF. As to the kind of experiment: Viability assay in normal cells. Format: cell-based. Conditions: human foreskin fibroblast cell line.
Source text: as §5

Data set [11] concerns HUVEC. As to the kind of experiment: Viability assay in normal cells. It is filed as cell-based. Conditions: human endothelial cell line.
Source text: as §5

Each structure is given as a SMILES string.

For `Cc1nc(N)sc1-c1csc(Nc2ccc([N+](=O)[O-])cc2)n1` [compound 6232, 4-methyl-5-[2-(4-nitroanilino)thiazol-4-yl]thiazol-2-amine], the migration capacity result in data set [1] is “inhibited the migration capacity”. The “cellular LOX activity” value in data set [2] and in [3] was “inhibited cellular LOX activity” in each case. Further, the “TGF-β-induced fibrosis (alpha-SMA, fibronectin staining)” value (from here on “TGF-β-induced fibrosis”) in data set [4] is “inhibited the TGF-β-induced fibrosis”. Also, in data set [5], the “inhibition of recombinant LOX” value is “strongly inhibit”. Moreover, the “cellular lysyl oxidase activity inhibition” value in data set [6] is “dose dependent cellular lysyl oxidase activity inhibition”.
`CC(=O)Nc1ccc(Nc2nc(-c3sc(N)nc3C)cs2)cc1` [compound 6403, N-[4-[[4-(2-amino-4-methyl-thiazol-5-yl)thiazol-2-yl]amino]phenyl]acetamide]: in [1], the migration capacity result is “inhibited the migration capacity”. The “cellular LOX activity” value in data set [2] and in [3] was “inhibited cellular LOX activity” in each case. Further, the “TGF-β-induced fibrosis” value in data set [4] was “inhibited the TGF-β-induced fibrosis”. The doxorubicin sensitization entry in data set [7] and in [8] was “led to doxorubicin sensitization” in each case. Further, the “cell viability (cytotoxicity in normal cells)” value in data set [9], in data set [10] and in [11] was “no significant change in cell viability” each time. Further, the “inhibition of recombinant LOX” value in [5] is “inhibits LOX recombinant protein”. In addition, the “selectivity LOX versus LOXL2 / LOX family” value in data set [5] is “more potent and selective inhibitor against LOX compared to LOXL2”. Moreover, in [6], the “cellular lysyl oxidase activity inhibition” value is listed as “dose dependent cellular lysyl oxidase activity inhibition”.
As to `Cc1nc(N)sc1-c1csc(N(C)c2ccc(O)cc2)n1` [compound 6415, 4-[[4-(2-amino-4-methyl-thiazol-5-yl)thiazol-2-yl]-methyl-amino]phenol], the migration capacity result in data set [1] was “inhibited the migration capacity”. Also, the “cellular LOX activity” value in data set [2] and in data set [3] was “inhibited cellular LOX activity” throughout. Moreover, the “TGF-β-induced fibrosis” value in [4] is “inhibited the TGF-β-induced fibrosis”. For the same compound, the doxorubicin sensitization result in [7] and in [8] was “led to doxorubicin sensitization” in each case. Moreover, the “cell viability (cytotoxicity in normal cells)” value in data set [9], in data set [10] and in data set [11] was “no significant change in cell viability” each time. Moreover, in [5], the “inhibition of recombinant LOX” value was “inhibits both LOX and LOXL2 recombinant proteins”. The “inhibition of recombinant LOX activity” value in data set [5] (5 and 10 uM) was “inhibited the activity of LOX and LOXL2 recombinant proteins”. In addition, the “selectivity LOX versus LOXL2 / LOX family” value was “more like a LOX/LOXL2 inhibitor” in data set [5] and “non-selective inhibitor of the LOX family of enzymes” in data set [5] (listed as 4-((2′-amino-4′-methyl-[4,5′-bithiazol]-2-yl)(methyl)amino)phenol). For the same compound, the “cellular lysyl oxidase activity inhibition” value in [6] is given as “dose dependent cellular lysyl oxidase activity inhibition”.

The values are drawn from patent US12642791B2, “Inhibitors of lysyl oxidases” (UNIVERSITY OF SOUTH CAROLINA, priority 2021, dated 2026).
